We go through three compounds from patent publication US20110182916A1, “Use of Agonists of Integrin Alpha 5 for Inducing the Osteogenic Differentiation of Mesenchymal Stem Cells” (priority 2008, published 2011).

Where no end group is shown, it is not given here.

For one experiment, the system named is LV-ITGA5-infected hMSCs. Format: cell-based, human.
A further experiment relates to ITGA5 in hMSCs. The experiment in a line: ITGA5 protein level by Western blot. Format: cell-based, human. The settings on record: dexamethasone 10^-7 M. The procedure:
For Western blot analysis, cells lysates were prepared as previously described (FROMIGUE et al. Cell Death Differ. 13, 1845-56, 2006). Briefly, proteins (30 μg) were resolved on 4-12% SDS-PAGE and electrotransfered onto […] membranes (Millipore Corporation, Bedford, USA). Filters were incubated at RT for 2 h in 50 mM Tris/HCl (pH 7.4), 150 mM NaCl, 0.1% (v/v) Tween-20, 0.5% (w/v) bovine serum albumin (TBST/BSA), then overnight at 4° C. on a shaker with specific primary antibodies diluted at 1/1000 in TBST/BSA: monoclonal antibody against the housekeeping gene GAPDH (Abeam Cambridge, UK), and rabbit polyclonal antibody directed against ITGA5 was Santa Cruz Biotechnology (Santa Cruz, Calif., USA). Membranes were washed twice with TBST and incubated for 2 hours with appropriate HRP-conjugated secondary antibody (1/20,000 in TBST/BSA). After final washes, the signals were visualized with enhanced chemiluminescence western blotting detection reagent (ECL, Amersham Biosciences, Piscataway, N.J., USA) and autoradiographic film (X-OMAT-AR, Eastman Kodak Company, Rochester, N.Y., USA). Densitometric analysis using ImageQuant software was performed following digital scanning (Agfa).
Background: A western blot detects proteins with antibodies after separation by electrophoresis.

The test system of a further experiment is ITGA5 in primary hMSCs. The experiment in a line: ITGA5 mRNA expression by quantitative RT-PCR. It is filed as cell-based, human. The settings on record: dexamethasone 10^-7 M, day 1 and 3, primary hMSCs.
A further experiment deals with hMSCs. The experiment in a line: Osteoblast marker mRNA (Runx2, ALP, Col1A1) by quantitative RT-PCR. Format: cell-based. The following applies: CRRETAWAC 100 μg/ml, 24 h, human MSCs. The procedure: The expression of mRNA markers of the osteoblast lineage (Runx2, ALP, type 1 collagen) was evaluated by quantitative RT-PCR. Total RNAs were isolated using Trizol reagent (Laboratoires Eurobio, France) according to the manufacturer's instructions. Three μg of total RNA from each sample were reverse transcribed using MMLV reverse transcriptase and oligodT primers, at 37° C. for 90 min. The relative mRNA levels were evaluated by quantitative PCR using LightCycler Instrument (Roche Applied Science, Indianapolis Ind., USA) and SYBR Green PCR kit (ABGen, Courtabceuf, France). Triplicate reactions were carried out for each sample. Signal was normalized to 18S as internal control.

Another experiment concerns clonal F/STRO1+A cells. As to the kind of experiment: ALP activity by staining in clonal cells. Format: cell-based, human. The settings on record: coating with 100 μg/ml CRRETAWAC
An excerpt:
F/STRO1^+A cells were derived from human fetal bone marrow stroma, selected for Stro1 antigen expression, immortalized using the large T SV40 and subsequently subcloned (OYAJOBI et al., J Bone Miner Res, 14, 351-61, 1999). This clonal human bone marrow stromal cell line express mRNA markers or protein of the osteoblast lineage (Runx2, OC, ALP, type 1 collagen), of the chondrocyte lineage (aggrecan, types 2, 9 and 10 collagen), and of the adipocyte lineage (PPARgamma2, C/EBPalpha, aP2, G3PDH, LPL, leptin) under basal conditions (AHDJOUDJ et al., J Cell Biochem, 81, 23-38, 2001).
The activity of alkaline phosphatase, an early marker of osteoblast differentiation, was determined by a colorimetric assay as previously described (FROMIGUE et al., J Cell Biochem, 104, 620-8, 2008). ALP staining was performed using Sigma FAST kit according to the manufacturer's recommendations (Sigma). Cells were fixed in 75% ethanol, rinsed in PBS and incubated with the substrate buffer at 37° C.
Legend: The synthetic cyclic peptide CRRETAWAC promotes osteoblast marker genes expression in hMSCs. A) Human MSCs were treated with CRRETAWAC at the dose of 100 μg/ml for 24 h, RNAs were collected and osteoblast markers were determined by qRT-PCR analysis. Results, after correction to 18S content, are expressed as mean±SD of treated over control ratio. […] Infection with LV-ITGA5 is shown for comparison.

Description for LV-ITGA5-infected hMSCs: To this goal, proteins collected from hMSCs infected with LV-ITGA5 were analysed by western blot analysis.
Legend: Osteoblast differentiation by ITGA5 involves ERK1/2 signalling.

In the case of `N#CC(=C(/N)Sc1ccccc1N)/C(C#N)=C(\N)Sc1ccccc1N` [U0126], in the experiment with LV-ITGA5-infected hMSCs, the “increased expression of ALP induced by ITGA5 overexpression” value is recorded as “blunted”, the “increased expression of Col1A1 induced by ITGA5 overexpression” value was “blunted” and the “increased expression of Runx2 induced by ITGA5 overexpression” value is on record as “blunted”.

On to `C[C@@H]1C[C@H]2[C@@H]3CCC4=CC(=O)C=C[C@]4(C)[C@@]3(F)[C@@H](O)C[C@]2(C)[C@@]1(O)C(=O)CO` [dexamethasone], for which the “increase of ITGA5 protein levels, treated over control” value in the experiment on ITGA5 in hMSCs is on record as “about 1.5 fold”. Further, the “increase of ITGA5 expression (mRNA), treated over control” value with ITGA5 in primary hMSCs is recorded as 2-3 fold.

As for CRRETAWAC (also: cyclic), in the experiment on hMSCs, the “expression of osteoblast markers (mRNA)” value was “greatly increased”. Moreover, in the experiment with clonal F/STRO1+A cells, the “ALP activity (staining)” value is on record as “increased”.
